Common to all, as to assay: Bliss interaction score (quartile over a dose matrix) (fitness difference); higher = more antagonism (negative = synergy)
One experiment deals with S. pneumoniae D39V. In a few lines: (§1)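 The Bliss score subtracts expected fitness, the product of the single-drug fitness values, from observed fitness. Fitness is plate-normalised OD595 at entry into stationary phase, relative to the robust no-drug mean and capped at 1, with single-drug fitness inferred from combinations. Summaries are quartiles over technical, biological and donor/recipient replicates.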

The next experiment concerns S. aureus DSM 20231. An outline of the steps: as §1
In another experiment the test system is B. subtilis 168. In a few lines:
as §1

The next experiment relates to S. aureus Newman. An outline of the steps:
as §1

SMILES strings stand for the structures.
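Further: first quartile when negative (synergy) and third quartile when positive (antagonism).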

As for `CC(=O)O[C@H]1C[C@@]2(C)[C@@H](C[C@@H](O)[C@H]3[C@@]4(C)CC[C@@H](O)[C@@H](C)[C@@H]4CC[C@@]32C)/C1=C(\CCC=C(C)C)C(=O)O` [Fusidic acid] + CC1(C)S[C@@H]2[C@H](NC(=O)Cc3ccccc3)C(=O)N2[C@H]1C(=O)O [PenicillinG], the Bliss interaction score in the experiment with S. pneumoniae D39V was 0.0666; with S. aureus DSM 20231, 0.0382; in the experiment on B. subtilis 168 it was 0.0421; with S. aureus Newman it was -0.0384.
The like results for `CC(=O)O[C@H]1C[C@@]2(C)[C@@H](C[C@@H](O)[C@H]3[C@@]4(C)CC[C@@H](O)[C@@H](C)[C@@H]4CC[C@@]32C)/C1=C(\CCC=C(C)C)C(=O)O` [Fusidic acid] + CC1=C\[C@@H](O)CC(=O)Cc2nc(co2)C(=O)N2CCC=C2C(=O)O[C@H](C(C)C)[C@H](C)/C=C/C(=O)NC\C=C\1 [Virginiamycin M1] were, in that order, 0.0996, 0.0345, 0.0743 and -0.044.
The like results for `CC(=O)O[C@H]1C[C@@]2(C)[C@@H](C[C@@H](O)[C@H]3[C@@]4(C)CC[C@@H](O)[C@@H](C)[C@@H]4CC[C@@]32C)/C1=C(\CCC=C(C)C)C(=O)O` [Fusidic acid] + CC(=O)NC[C@H]1CN(c2ccc(N3CCOCC3)c(F)c2)C(=O)O1 [Linezolid] were, in that order, -0.1, -0.0285, -0.141 and -0.0198.
In the case of `CC(=O)O[C@H]1C[C@@]2(C)[C@@H](C[C@@H](O)[C@H]3[C@@]4(C)CC[C@@H](O)[C@@H](C)[C@@H]4CC[C@@]32C)/C1=C(\CCC=C(C)C)C(=O)O` [Fusidic acid] + CC(C1CCC(C(O1)OC2C(CC(C(C2O)OC3C(C(C(CO3)(C)O)NC)O)N)N)N)NC [Gentamicin], the Bliss interaction score with S. pneumoniae D39V (main component drawn) is -0.0713; in the experiment on S. aureus DSM 20231 (main component drawn) it was 0.034; in the experiment on B. subtilis 168 (main component drawn) it was -0.0712; with S. aureus Newman (main component drawn) it was 0.0572.
In the same order, the values of `CC(=O)O[C@H]1C[C@@]2(C)[C@@H](C[C@@H](O)[C@H]3[C@@]4(C)CC[C@@H](O)[C@@H](C)[C@@H]4CC[C@@]32C)/C1=C(\CCC=C(C)C)C(=O)O` [Fusidic acid] + CCC(C)C1C(=O)NC(=C)C(=O)NC(C(=O)NC(CSCC(C(=O)N1)NC(=O)/C(=C/C)/NC(=O)C(C(C)CC)N)C(=O)NC2C(SCC(NC(=O)CNC(=O)C3CCCN3C2=O)C(=O)NC(CCCCN)C(=O)NC4C(SCC(NC(=O)CNC(=O)C(NC(=O)C(NC(=O)C(NC(=O)CNC4=O)C)CC(C)C)CCSC)C(=O)NC(CC(=O)N)C(=O)NC(CCSC)C(=O)NC(CCCCN)C(=O)NC5C(SCC6C(=O)NC(C(=O)NC(CSC(C(C(=O)N6)NC(=O)C(NC5=O)C)C)C(=O)NC(CO)C(=O)NC(C(C)CC)C(=O)NC(CC7=CN=CN7)C(=O)NC(C(C)C)C(=O)NC(=C)C(=O)NC(CCCCN)C(=O)O)CC8=CN=CN8)C)C)C)CC(C)C [Nisin] are -0.0281, 0.0299, -0.0332 and -0.0346.
For the compound `CC(=O)O[C@H]1C[C@@]2(C)[C@@H](C[C@@H](O)[C@H]3[C@@]4(C)CC[C@@H](O)[C@@H](C)[C@@H]4CC[C@@]32C)/C1=C(\CCC=C(C)C)C(=O)O` [Fusidic acid] + CCCCCCCCCC(=O)N[C@@H]1[C@H]([C@@H]([C@H](O[C@H]1OC2=C3C=C4C=C2OC5=C(C=C(C=C5)[C@H]([C@H]6C(=O)N[C@@H](C7=C(C(=CC(=C7)O)OC8[C@H]([C@H]([C@@H]([C@H](O8)CO)O)O)O)C9=C(C=CC(=C9)[C@H](C(=O)N6)NC(=O)[C@@H]4NC(=O)[C@@H]1C2=CC(=CC(=C2)OC2=C(C=CC(=C2)[C@H](C(=O)N[C@H](CC2=CC(=C(O3)C=C2)Cl)C(=O)N1)N)O)O)O)C(=O)O)O[C@H]1[C@@H]([C@H]([C@@H]([C@H](O1)CO)O)O)NC(=O)C)Cl)CO)O)O [Teicoplanin], the Bliss interaction score in the experiment with S. pneumoniae D39V (main component drawn) is 0.0761; with S. aureus DSM 20231 (main component drawn) it was 0.0374; with B. subtilis 168 (main component drawn), -0.0459; in the experiment on S. aureus Newman (main component drawn) it was -0.0424.
`CC(=O)O[C@H]1C[C@@]2(C)[C@@H](C[C@@H](O)[C@H]3[C@@]4(C)CC[C@@H](O)[C@@H](C)[C@@H]4CC[C@@]32C)/C1=C(\CCC=C(C)C)C(=O)O` [Fusidic acid] + CCC[C@@H]1C[C@@H](C(=O)N[C@@H]([C@H]2O[C@H](SC)[C@H](O)[C@@H](O)[C@H]2O)[C@@H](C)O)N(C)C1 [Lincomycin]: the Bliss interaction score is -0.0651 in the experiment with S. pneumoniae D39V, -0.0572 in the experiment with S. aureus DSM 20231, 0.0915 with B. subtilis 168 and -0.0595 in the experiment with S. aureus Newman.
The like results for `CC(=O)O[C@H]1C[C@@]2(C)[C@@H](C[C@@H](O)[C@H]3[C@@]4(C)CC[C@@H](O)[C@@H](C)[C@@H]4CC[C@@]32C)/C1=C(\CCC=C(C)C)C(=O)O` [Fusidic acid] + CCN(CC)CCOC(=O)c1ccc(N)cc1 [Procaine] were, in that order, 0.0981, -0.0218, -0.0381 and -0.0177.
The like results for `CC(=O)O[C@H]1C[C@@]2(C)[C@@H](C[C@@H](O)[C@H]3[C@@]4(C)CC[C@@H](O)[C@@H](C)[C@@H]4CC[C@@]32C)/C1=C(\CCC=C(C)C)C(=O)O` [Fusidic acid] + CC[C@H]1OC(=O)[C@H](C)C(=O)[C@H](C)[C@@H](O[C@@H]2O[C@H](C)C[C@H](N(C)C)[C@H]2O)[C@](C)(OC)C[C@@H](C)C(=O)[C@H](C)[C@H]2N(CCCCn3cnc(-c4cccnc4)c3)C(=O)O[C@]12C [Telithromycin] were, in that order, -0.0347, -0.0334, -0.0755 and 0.0161.
The like results for `CC(=O)O[C@H]1C[C@@]2(C)[C@@H](C[C@@H](O)[C@H]3[C@@]4(C)CC[C@@H](O)[C@@H](C)[C@@H]4CC[C@@]32C)/C1=C(\CCC=C(C)C)C(=O)O` [Fusidic acid] + CN1C2=CC=CC=C2N=C3C1=CC=CC3=O [Pyocyanin] were, in that order, 0.0648, 0.0421, 0.0385 and 0.0295.
Consider `CC(=O)O[C@H]1C[C@@]2(C)[C@@H](C[C@@H](O)[C@H]3[C@@]4(C)CC[C@@H](O)[C@@H](C)[C@@H]4CC[C@@]32C)/C1=C(\CCC=C(C)C)C(=O)O` [Fusidic acid] + CN(C)C(=O)C(CCN1CCC(O)(c2ccc(Cl)cc2)CC1)(c1ccccc1)c1ccccc1 [Loperamide], for which the Bliss interaction score with S. pneumoniae D39V was 0.128; with S. aureus DSM 20231 it was 0.0226; in the experiment with B. subtilis 168, -0.0873; with S. aureus Newman, 0.0269.
The like results for `CC(=O)O[C@H]1C[C@@]2(C)[C@@H](C[C@@H](O)[C@H]3[C@@]4(C)CC[C@@H](O)[C@@H](C)[C@@H]4CC[C@@]32C)/C1=C(\CCC=C(C)C)C(=O)O` [Fusidic acid] + CN(C)c1cc(NC(=O)CNC(C)(C)C)c(O)c2c1C[C@H]1C[C@H]3[C@H](N(C)C)C(O)=C(C(N)=O)C(=O)[C@@]3(O)C(O)=C1C2=O [Tigecycline] were, in that order, -0.0713, -0.0504, 0.074 and 0.0375.
The like results for `CC(=O)O[C@H]1C[C@@]2(C)[C@@H](C[C@@H](O)[C@H]3[C@@]4(C)CC[C@@H](O)[C@@H](C)[C@@H]4CC[C@@]32C)/C1=C(\CCC=C(C)C)C(=O)O` [Fusidic acid] + CN(N=O)C(=O)N[C@@H](C=O)[C@@H](O)[C@H](O)[C@H](O)CO [Streptozotocin] were, in that order, 0.0486, -0.0166, 0.0745 and -0.0145.
`CC(=O)O[C@H]1C[C@@]2(C)[C@@H](C[C@@H](O)[C@H]3[C@@]4(C)CC[C@@H](O)[C@@H](C)[C@@H]4CC[C@@]32C)/C1=C(\CCC=C(C)C)C(=O)O` [Fusidic acid] + CN[C@@H]1[C@H](O)[C@H](NC)[C@H]2O[C@@]3(O)C(=O)C[C@@H](C)O[C@H]3O[C@@H]2[C@H]1O [Spectinomycin]: the Bliss interaction score in the experiment on S. pneumoniae D39V was -0.0789; in the experiment with S. aureus DSM 20231, 0.027; in the experiment with B. subtilis 168, 0.0642; with S. aureus Newman it was -0.0448.
The like results for `CC(=O)O[C@H]1C[C@@]2(C)[C@@H](C[C@@H](O)[C@H]3[C@@]4(C)CC[C@@H](O)[C@@H](C)[C@@H]4CC[C@@]32C)/C1=C(\CCC=C(C)C)C(=O)O` [Fusidic acid] + CN[C@@H]1[C@H](O[C@H]2[C@H](O[C@H]3[C@H](O)[C@@H](O)[C@H](N=C(N)N)[C@@H](O)[C@@H]3N=C(N)N)O[C@@H](C)[C@]2(O)C=O)O[C@@H](CO)[C@H](O)[C@H]1O [Streptomycin] were, in that order, -0.0901, 0.034, 0.0692 and -0.0834.
The like results for `CC(=O)O[C@H]1C[C@@]2(C)[C@@H](C[C@@H](O)[C@H]3[C@@]4(C)CC[C@@H](O)[C@@H](C)[C@@H]4CC[C@@]32C)/C1=C(\CCC=C(C)C)C(=O)O` [Fusidic acid] + CN[C@H](CC(C)C)C(=O)N[C@H]1C(=O)N[C@@H](CC(N)=O)C(=O)N[C@H]2C(=O)N[C@H]3C(=O)N[C@H](C(=O)N[C@H](C(=O)O)c4cc(O)cc(O)c4-c4cc3ccc4O)[C@H](O)c3ccc(c(Cl)c3)Oc3cc2cc(c3O[C@@H]2O[C@H](CO)[C@@H](O)[C@H](O)[C@H]2O[C@H]2C[C@](C)(N)[C@H](O)[C@H](C)O2)Oc2ccc(cc2Cl)[C@H]1O [Vancomycin] were, in that order, 0.0729, 0.0205, -0.0397 and -0.0305.

The record behind these values is the supplement of paper PMC10627819.
